Calls of active or inactive are those of the source. The rule behind the calls is not given here.
Tested on: HT-29
Assay: Antiproliferative activity against human HT-29 cells after 1 to 15 hrs
Type: functional, cell-based

Row | Structure (SMILES) | Activity
1 | CCC(C)C1OC(=O)[C@@H](NC(=O)c2cccc(O)c2O)[C@H](C)OC(=O)C(C)(C)C(=O)C(CC(C)C)OC1=O (some centres not stated) | Active
2 | CCC(C)C1OC(=O)[C@@H](NC(=O)c2cccc(N)c2O)[C@H](C)OC(=O)C(C)(C)C(=O)C(CC(C)C)OC1=O (some centres not stated) | Active
